The results in this text go back to patent US20230233500A1, “Gasdermin D (GSDMD) Succination for the Treatment of Inflammatory Disease” (University of Massachusetts, priority 2020, published 2023).

One experiment deals with T1, h.GSDME (Homo sapiens, UniProt O60443).
T1 sequence (O60443 1-496): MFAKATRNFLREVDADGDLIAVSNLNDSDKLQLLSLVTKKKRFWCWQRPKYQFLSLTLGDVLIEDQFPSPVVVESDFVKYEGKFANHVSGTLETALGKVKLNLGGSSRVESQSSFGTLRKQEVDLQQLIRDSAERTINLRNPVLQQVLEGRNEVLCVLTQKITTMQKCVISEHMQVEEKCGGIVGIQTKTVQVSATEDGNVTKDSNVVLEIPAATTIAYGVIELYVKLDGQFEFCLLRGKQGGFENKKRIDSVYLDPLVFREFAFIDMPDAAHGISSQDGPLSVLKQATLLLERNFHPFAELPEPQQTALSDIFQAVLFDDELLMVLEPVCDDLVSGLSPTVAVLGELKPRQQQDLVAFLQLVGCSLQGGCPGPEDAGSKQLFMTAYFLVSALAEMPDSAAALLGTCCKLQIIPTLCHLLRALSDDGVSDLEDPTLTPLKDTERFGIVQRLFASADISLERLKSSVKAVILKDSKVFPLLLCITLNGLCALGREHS
Kind of experiment: In vitro succination reaction with LC-MS/MS peptide mapping. The experiment is classed as binding.

The next experiment addresses T2, recombinant GSDMD (Homo sapiens, UniProt P57764).
T2 sequence (P57764 1-484): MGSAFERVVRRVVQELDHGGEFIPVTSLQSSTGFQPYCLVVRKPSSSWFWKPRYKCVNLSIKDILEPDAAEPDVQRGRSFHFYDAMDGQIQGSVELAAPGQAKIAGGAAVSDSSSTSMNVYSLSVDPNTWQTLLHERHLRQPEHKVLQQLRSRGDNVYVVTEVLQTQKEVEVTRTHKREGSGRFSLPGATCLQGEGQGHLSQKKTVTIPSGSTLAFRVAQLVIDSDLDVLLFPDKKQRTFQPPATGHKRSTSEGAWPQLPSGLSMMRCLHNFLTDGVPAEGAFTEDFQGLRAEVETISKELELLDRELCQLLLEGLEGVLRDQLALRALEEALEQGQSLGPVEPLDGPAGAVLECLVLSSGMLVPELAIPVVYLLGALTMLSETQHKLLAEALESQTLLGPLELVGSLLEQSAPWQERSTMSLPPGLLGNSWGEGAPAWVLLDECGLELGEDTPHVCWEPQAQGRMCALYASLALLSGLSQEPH
Kind of experiment: MMF-Yne labelling of recombinant GSDMD competed by fumarate, intact MS. The experiment is classed as binding. As to conditions: 1 μM GSDMD. How it is done:
FIGS. 11A-E. Fumarate binds to GSDMD. (A) Immunoblot analysis of MMF-Yne bound proteins using a streptavidin-IR dye. (B) Representative MS spectra of GSDMD identified in streptavidin pulldowns subjected to mass spec. (C-D) Immunoblot analysis (C) and densitometry analysis (D) of streptavidin-IR dye detecting MMF-Yne labelled recombinant GSDMD incubated with the indicated concentrations of fumarate and copper clicked using a biotin-azide. (E) Intact MS analysis of recombinant GSDMD (1 μM) incubated in a succination reaction with DMSO (vehicle) or fumarate (25 μM) for 2 hours. A-E Representative images from 2 independent experiments..
Intact mass analysis of GSDMD protein was carried out using an Acquity UPLC (Waters Corporation, Milford, Mass.) coupled to a Synapt G2-Si (Waters) quadrupole time-of-flight mass spectrometer fitted with an electrospray ionization source. Liquid chromatography was carried out with a 3.0×50 mm(4 μm) MAbPac RP column (Thermo Scientific, Waltham, Mass.) using mobile phase A and B containing 0.1% (v/v) formic acid in water, and 0.1% (v/v) formic acid in acetonitrile, respectively. A total of 0.6 μg sample was injected and the protein eluted using a linear gradient of 10 to 70% B over 7.0 minutes at a flow rate of 0.3 ml/min. […]

“Also recorded” adds a separate entry of the source. Structures can show the parent of a compound that is named as a salt. Where two headings read alike, the source gives them in different places.

In the case of `COC(=O)/C=C/C(=O)OC` [Fumarate, Dimethyl fumarate], the entries for the “In vitro cysteine succination sites” value at h.GSDME and on h.GSDME (listed as DMF) were “Cys^45” and “Cys235; also recorded: Cys371; also recorded: Cys408; also recorded: Cys489; also recorded: Cys45; also recorded: Cys156; also recorded: Cys180”, respectively. Moreover, the “concentration at which maximum occupancy of GSDMD was achieved” value at recombinant GSDMD worked out at 25 µM.
